Results: US6096747A, “Phenylaminocarbonyl derivatives and processes for their preparation” (Celltech Therapeutics Limited, priority 1992, dated 2000)

Experiments:
PDE IV = assay: Isolated enzyme PDE IV inhibition (HL60 cells); type: biochemical; details: Ki PDE IV HL60 at (1 μM); pH 7.5, 30° C.; read-out: approximate Ki, PDE IV HL60
Protocol: The potency and selectivity of the compounds of the invention was determined using a battery of distinct PDE isoenzymes as follows:
The enzymes were purified to kinetic homogeneity using standard chromatographic techniques.
Phosphodiesterase activity was assayed as follows. The reaction was conducted in 150 μl of standard mixture containing (final concentrations): 50 mM TES-NaOH buffer (pH 7.5), 10 mM MgCl2, 0.1 μM [^3 H]-cAMP and vehicle or various concentrations of the test compounds. The reaction was initiated by addition of enzyme and conducted at 30° C. for between 5 to 30 mins. The reaction was terminated by addition of 50 μl 2% trifluoroacetic acid containing [^14 C]-5'AMP for determining recovery of the product. An aliquot of the sample was then applied to a column of neutral alumina and the [^3 H]-cAMP eluted with 10 ml 0.1 TES-NaOH buffer (pH8). The [^3 H]-5'-AMP product was eluted with 2 ml 2M NaOH into a scintillation vial containing 10 ml of scintillation cocktail. Recovery of [^3 H]-5'AMP was determined using the [^14 C]-5'AMP and all assays were conducted in the linear range of the reaction.

right atrial muscle = details: selective PDE IV / PDE III reference inhibitors; background statement; cited from earlier work
papillary muscle = details: selective PDE IV / PDE III reference inhibitors; background statement; cited from earlier work
[1] = non-specific PDE inhibitor; cited from earlier work

SMILES | Ki (PDE IV) | direct effects on atria (chronotropic), reference inhibitors (right atrial muscle) | direct effects on papillary muscle (inotropic), reference inhibitors (papillary muscle) | cardiovascular changes [1]
COc1ccc(NC(=O)c2ccccc2[N+](=O)[O-])cc1OC1CCCC1 [Example 3, 3-Cyclopentyloxy-4-methyloxy-N-(2-Nitrobenzoyl)aniline] | ~179 nM | – | – | –
Cc1[nH]c(=O)c(C#N)cc1-c1ccncc1 [milrinone] | – | positive chronotropic and inotropic effects | positive chronotropic and inotropic effects | –
COc1ccc(C2CNC(=O)C2)cc1OC1CCCC1 (stereo not shown) [rolipram] | – | do not have any direct effects | do not have any direct effects | –
Cn1c(=O)c2[nH]cnc2n(C)c1=O [theophylline] | – | – | – | significant cardiovascular changes such as tachycardia
COc1ccc(NC(=O)c2ccccc2)cc1OC1CCCC1 [Example 1, N-Benzoyl-3-cyclopentyloxy-4-methyloxyaniline] | ~391 nM | – | – | –
